{"source": "patent US10098352B2", "about": "“Honeybee repellents and uses thereof” (Inscent, Inc., priority 2011, dated 2018)", "key": {"[1]": {"system": "Apis mellifera Carniolan foraging worker honeybees", "assay": "Proboscis extension response (PER) assay in bees conditioned to 2-heptanone", "type": "in vivo", "settings": "final compound concentration 0.5% (TRITON X-100/water), 4 s exposure; only bees PER-positive to 2-heptanone and negative to controls counted", "procedure": "To determine whether a living honeybee can recognize a candidate compound, these compounds were tested using a proboscis extension response (PER) assay using classical conditioning approaches. Proboscis extension response conditioning is a case of appetitive learning, in which bees learn to associate odor stimuli with sucrose reward in the laboratory. In this case, bees were conditioned to produce a PER to 2-heptanone as the conditioned stimulus and a sugar reward as the unconditioned stimulus. These trained bees were then exposed to an odor pulse of a candidate compound to test whether a candidate compound would also produce a PER. If the candidate compound “mimics” 2-heptanone then the honeybee will extend its proboscis.\nFor conditioning procedures, Apis mellifera Carniolan foraging worker honeybees were obtained from a local apiary (typically 60 bees per shipment). The honeybees were held overnight in insect cages with food and water freely available, in an environmentally controlled room on a light cycle similar to the ambient cycle at the time of the assay.\nFor conditioning procedures, all tests were done in an odorant delivery apparatus set inside a fume hood. The apparatus comprised a set of open-ended, horizontal, 3 cm diameter by 10 cm long plastic tubes. Each tube was designed where a honeybee could be positioned at the distal end of a tube, with the opening at the other end of the tube located proximal to an inlet of the fume hood. To deliver an odorant, room air was pumped by a diaphragm pump through a particle filter via 0.25 inch plastic tubing at approximately 0.7 m/sec. The air flow passes into the headspace above an odorant (0.5% [v/v]2-heptanone dissolved in odorless light paraffin oil) contained in a 100 mL bottle. The headspace air then passes through another plastic tube to a manifold of 4-way valves, each of which was attached near the proximal end of a plastic tube containing a bee. Each bee was exposed separately for a desired time period to the odorant by opening and closing the appropriate valve. When each valve was closed, the odor was flushed away immediately by the continuous fume hood air stream.\nTo train a honeybee to respond to a conditioned and unconditioned stimuli, bees were placed, without anesthesia, in individual 1.5 mL micro-centrifuge holding tubes and held overnight without access to food or water. The holding tubes containing the starved bees were placed in racks in groups of eight. One rack at a time was placed behind the odorant delivery apparatus so that each bee's head is centered at the distal end of a horizontal plastic tube. Each bee was exposed to the 2-heptanone odorant alone for four seconds, and then while being fed an 80% sucrose solution for and additional three seconds. The sucrose solution was delivered on a piece of saturated filter paper held in forceps. […] Positive and negative responses were recorded. A positive PER was scored when a bee extended its proboscis before the sucrose appeared. In a typical trial, 48 individual bees were subjected to conditioning. Six rounds of training were done before testing began, and typically a majority of the bees were successfully conditioned by the second or third round of training.\nAfter conditioning, honeybees were tested with the candidate compounds the same day or on the following day or, most commonly, both. When held overnight, bees were fed with sucrose and kept in their holding tubes. When tested the day after training, bees were given one or more rounds of conditioning with 2-heptatone to refresh their memories. Candidate compounds stocks were made at 5% (w/v) in polyoxyethylene octyl phenyl ether (TRITON® X-100), a non-ionic detergent/surfactant, and stored at 4° C. This detergent is similar to substances used as carriers for a variety of commercial pest-control agents, can act as a solvent for both hydrophilic and hydrophobic substances, and is itself nearly odorless. […]"}, "[2]": {"system": "OBP2", "assay": "Fluorescent-quench ligand-protein-binding assay (OBP2 binding screen)", "set-up": "species or system Apis mellifera; key: Low, indicates no detectable binding to OBP2.; Moderate, indicates that 50% or less of the compound bound to OBP2.; Strong, indicates that 51% or more of the compound bound to OBP2", "text": "To identify a honeybee repellent disclosed herein, candidate compounds were screened based upon the fact that 2-heptanone is an established repellent of bees. 2-heptanone is thought to mediate its behavioral response through binding to a specific odorant-binding protein called OBP2. Therefore compounds that bind OBP2 have the potential to act as odor “mimics” of 2-heptanone. By utilizing a fluorescent-quench, ligand-protein-binding assay, 30,000 compounds from the DIVERSET® library (ChemBridge Corp., San Diego, Calif.), a chemical library, were screened and over 150 candidate compounds were isolated that bind OBP2 (Table 1). Such assays are generally known in the art. See, e.g., Briand, et al., Ligand-Binding Properties and Structural Characterization of a Novel Rat Odorant-Binding Protein Variant, Eur. J. Biochem. 267(10): 3079-3089 (2000); Briand, et al., Ligand Binding and Physico-Chemical Properties of ASP2, A Recombinant Odorant-Binding Protein From Honeybee (Apis mellifera L.), Eur. J. Biochem. 268(3): 752-760 (2001); Briand, et al., Characterization of a Chemosensory Protein (ASP3c) from Honeybee (Apis mellifera L.) as a Brood Pheromone Carrier, Eur. J. Biochem. 269(18): 4586-4596 (2002), each of which is hereby incorporated by reference in its entirety."}}, "data": [{"smiles": "COc1ccc(CN(C)CCN(C)C)c(C)c1C", "note": "[compound 32]", "values": [{"measurement": "2-heptanone positive bees testing positive to compound", "setting": "[1]", "result": 2.4, "unit": "%"}]}, {"smiles": "COc1ccc(CN2CCOCC2)c(C)c1C", "note": "[compound 33]", "values": [{"measurement": "OBP2 binding characteristic of compound", "setting": "[2]", "result": "Low*"}, {"measurement": "2-heptanone positive bees testing positive to compound", "setting": "[1]", "result": 8.5, "unit": "%"}]}, {"smiles": "Cc1cc(O)c(C2=Nc3ccccc3SC(c3ccc(O)cc3)C2)c(=O)o1", "note": "(stereo not shown) [compound 35]", "values": [{"measurement": "OBP2 binding characteristic of compound", "setting": "[2]", "result": "Moderate (Moderate, indicates that 50% or less of the compound bound to OBP2.)"}, {"measurement": "2-heptanone positive bees testing positive to compound", "setting": "[1]", "result": 9.0, "unit": "%"}]}, {"smiles": "COc1cccc(C(=O)Oc2ccc3c(c2)C(C)=CC(C)(C)N3)c1", "note": "[compound 37]", "values": [{"measurement": "OBP2 binding characteristic of compound", "setting": "[2]", "result": "Moderate (Moderate, indicates that 50% or less of the compound bound to OBP2.)"}, {"measurement": "2-heptanone positive bees testing positive to compound", "setting": "[1]", "result": 14.4, "unit": "%"}]}, {"smiles": "c1ccc(CCN(Cc2ccccc2)Cc2cccnc2)cc1", "note": "[compound 39]", "values": [{"measurement": "OBP2 binding characteristic of compound", "setting": "[2]", "result": "Moderate (Moderate, indicates that 50% or less of the compound bound to OBP2.)"}, {"measurement": "2-heptanone positive bees testing positive to compound", "setting": "[1]", "result": 1.9, "unit": "%"}]}, {"smiles": "CCOC(=O)C1=C(C)NC(C)=C(C(=O)OC)C1c1ccc(Br)cc1", "note": "(stereo not shown) [compound 41]", "values": [{"measurement": "OBP2 binding characteristic of compound", "setting": "[2]", "result": "Moderate (Moderate, indicates that 50% or less of the compound bound to OBP2.)"}, {"measurement": "2-heptanone positive bees testing positive to compound", "setting": "[1]", "result": 1.4, "unit": "%"}]}, {"smiles": "CC(C)(C)C1=CC(=NNC(N)=S)C=C(C(C)(C)C)C1=O", "note": "[compound 42]", "values": [{"measurement": "OBP2 binding characteristic of compound", "setting": "[2]", "result": "Moderate (Moderate, indicates that 50% or less of the compound bound to OBP2.)"}, {"measurement": "2-heptanone positive bees testing positive to compound", "setting": "[1]", "result": 2.6, "unit": "%"}]}, {"smiles": "COC(=O)c1cc(S(=O)(=O)Nc2ccc(Br)cc2)ccc1Cl", "note": "[compound 44]", "values": [{"measurement": "OBP2 binding characteristic of compound", "setting": "[2]", "result": "Moderate (Moderate, indicates that 50% or less of the compound bound to OBP2.)"}, {"measurement": "2-heptanone positive bees testing positive to compound", "setting": "[1]", "result": 7.3, "unit": "%"}]}, {"smiles": "CN1CCN(Cc2cc3c(cc2[N+](=O)[O-])OCO3)CC1", "note": "[compound 45]", "values": [{"measurement": "2-heptanone positive bees testing positive to compound", "setting": "[1]", "result": 11.6, "unit": "%"}]}, {"smiles": "COc1cc(CN2CCN(Cc3ccc4c(c3)OCO4)CC2)c([N+](=O)[O-])cc1OC", "note": "[compound 46]", "values": [{"measurement": "2-heptanone positive bees testing positive to compound", "setting": "[1]", "result": 12.8, "unit": "%"}]}, {"smiles": "O=[N+]([O-])c1cc2c(cc1CN1CCSCC1)OCO2", "note": "[compound 47]", "values": [{"measurement": "2-heptanone positive bees testing positive to compound", "setting": "[1]", "result": 18.3, "unit": "%"}]}, {"smiles": "CN(CCc1ccccn1)Cc1cc2c(cc1[N+](=O)[O-])OCO2", "note": "[compound 48]", "values": [{"measurement": "2-heptanone positive bees testing positive to compound", "setting": "[1]", "result": 18.9, "unit": "%"}]}, {"smiles": "COc1ccc(CN2CCN(c3ccc(C)cc3)CC2)c(C)c1C", "note": "[compound 49]", "values": [{"measurement": "2-heptanone positive bees testing positive to compound", "setting": "[1]", "result": 0.0, "unit": "%"}]}, {"smiles": "O=C(C=Cc1c[nH]c2ccccc12)c1ccc(C(=O)C=Cc2c[nH]c3ccccc23)cc1", "note": "[compound 51]", "values": [{"measurement": "2-heptanone positive bees testing positive to compound", "setting": "[1]", "result": 14.8, "unit": "%"}]}, {"smiles": "O=C(C=Cc1c[nH]c2ccccc12)c1ccc(-c2ccccc2)cc1", "note": "[compound 52]", "values": [{"measurement": "2-heptanone positive bees testing positive to compound", "setting": "[1]", "result": 13.9, "unit": "%"}]}, {"smiles": "Ic1ccc(-c2cn3ccsc3n2)cc1", "note": "[compound 53]", "values": [{"measurement": "OBP2 binding characteristic of compound", "setting": "[2]", "result": "Moderate (Moderate, indicates that 50% or less of the compound bound to OBP2.)"}, {"measurement": "2-heptanone positive bees testing positive to compound", "setting": "[1]", "result": 18.2, "unit": "%"}]}, {"smiles": "COc1ccc(CN2CCN(C)CC2)c(C)c1C", "note": "[compound 62]", "values": [{"measurement": "2-heptanone positive bees testing positive to compound", "setting": "[1]", "result": 11.6, "unit": "%"}]}, {"smiles": "COc1ccc(CN2CCOCC2)c(C)c1C", "note": "[compound 63]", "values": [{"measurement": "2-heptanone positive bees testing positive to compound", "setting": "[1]", "result": 10.9, "unit": "%"}]}, {"smiles": "COc1ccc(CN2CCN(Cc3cccc(C)c3)CC2)cc1", "note": "[compound 65]", "values": [{"measurement": "2-heptanone positive bees testing positive to compound", "setting": "[1]", "result": 6.3, "unit": "%"}]}, {"smiles": "COc1ccc(CN(C)CCN(C)C)c(C)c1C", "note": "[compound 66]", "values": [{"measurement": "2-heptanone positive bees testing positive to compound", "setting": "[1]", "result": 3.1, "unit": "%"}]}]}
